Results: US12448369B2 (Edgewise Therapeutics, Inc., priority 2023, dated 2025)

How the values were obtained:
[1] = biological target: T1, Porcine ventricle myofibrils (ventricular myosin ATPase) (Sus scrofa, UniProt P79293); assay: Myofibril ATPase assay, porcine ventricle myofibrils; assay type: biochemical, porcine (Yucatan minipigs); settings: porcine ventricle myofibrils
T1 construct: Myofibrils from porcine cardiac muscle was isolated from the left ventricle of Yucatan minipigs; tissue Exemplar Genetics; host or cells: left ventricle of Yucatan minipigs, myofibrils prepared in house
How it was run: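 Myofibrils isolated from Yucatan minipig left ventricle; coupled PK/LDH NADH assay, pCa buffer pH 7.0, kinetic A340 reads over 75 min. Vehicle-normalized slopes fit 4PL; Y75/Y125 derived.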

[2] = system: Porcine atria myofibrils (atrial myosin ATPase); assay: Myofibril ATPase assay, porcine atria myofibrils; assay type: biochemical; settings: porcine atria myofibrils
How it was run: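 Y75 (25% inhibition) or Y125 (activation) values come from 4-parameter logistic fits of vehicle-normalized rates. Rates are linear-regression slopes of NADH absorbance at 340 nm, read kinetically over 75 min, with ADP coupled to NADH oxidation via pyruvate kinase/lactate dehydrogenase.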

[3] = system: Rabbit Psoas myofibrils (skeletal myosin ATPase); assay: Myofibril ATPase assay, rabbit psoas (skeletal) myofibrils; assay type: biochemical; settings: rabbit psoas myofibrils
How it was run: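 Values are concentrations giving 75% (Y75) or 125% (Y125) of vehicle ATPase activity, from 4-parameter logistic fits of normalized rates. Rates came from linear regression of A340 over 75 min, NADH oxidation coupled to ADP via PK-LDH. Enzyme source: skeletal myofibrils from rabbit psoas, pH 7.0 pCa buffer.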

[4] = Y75 value (75% activity relative to no compound)
[5] = ‡ Y125 value, not a Y75 value (125% activity relative to no compound)

T1 sequence (P79293 whole entry): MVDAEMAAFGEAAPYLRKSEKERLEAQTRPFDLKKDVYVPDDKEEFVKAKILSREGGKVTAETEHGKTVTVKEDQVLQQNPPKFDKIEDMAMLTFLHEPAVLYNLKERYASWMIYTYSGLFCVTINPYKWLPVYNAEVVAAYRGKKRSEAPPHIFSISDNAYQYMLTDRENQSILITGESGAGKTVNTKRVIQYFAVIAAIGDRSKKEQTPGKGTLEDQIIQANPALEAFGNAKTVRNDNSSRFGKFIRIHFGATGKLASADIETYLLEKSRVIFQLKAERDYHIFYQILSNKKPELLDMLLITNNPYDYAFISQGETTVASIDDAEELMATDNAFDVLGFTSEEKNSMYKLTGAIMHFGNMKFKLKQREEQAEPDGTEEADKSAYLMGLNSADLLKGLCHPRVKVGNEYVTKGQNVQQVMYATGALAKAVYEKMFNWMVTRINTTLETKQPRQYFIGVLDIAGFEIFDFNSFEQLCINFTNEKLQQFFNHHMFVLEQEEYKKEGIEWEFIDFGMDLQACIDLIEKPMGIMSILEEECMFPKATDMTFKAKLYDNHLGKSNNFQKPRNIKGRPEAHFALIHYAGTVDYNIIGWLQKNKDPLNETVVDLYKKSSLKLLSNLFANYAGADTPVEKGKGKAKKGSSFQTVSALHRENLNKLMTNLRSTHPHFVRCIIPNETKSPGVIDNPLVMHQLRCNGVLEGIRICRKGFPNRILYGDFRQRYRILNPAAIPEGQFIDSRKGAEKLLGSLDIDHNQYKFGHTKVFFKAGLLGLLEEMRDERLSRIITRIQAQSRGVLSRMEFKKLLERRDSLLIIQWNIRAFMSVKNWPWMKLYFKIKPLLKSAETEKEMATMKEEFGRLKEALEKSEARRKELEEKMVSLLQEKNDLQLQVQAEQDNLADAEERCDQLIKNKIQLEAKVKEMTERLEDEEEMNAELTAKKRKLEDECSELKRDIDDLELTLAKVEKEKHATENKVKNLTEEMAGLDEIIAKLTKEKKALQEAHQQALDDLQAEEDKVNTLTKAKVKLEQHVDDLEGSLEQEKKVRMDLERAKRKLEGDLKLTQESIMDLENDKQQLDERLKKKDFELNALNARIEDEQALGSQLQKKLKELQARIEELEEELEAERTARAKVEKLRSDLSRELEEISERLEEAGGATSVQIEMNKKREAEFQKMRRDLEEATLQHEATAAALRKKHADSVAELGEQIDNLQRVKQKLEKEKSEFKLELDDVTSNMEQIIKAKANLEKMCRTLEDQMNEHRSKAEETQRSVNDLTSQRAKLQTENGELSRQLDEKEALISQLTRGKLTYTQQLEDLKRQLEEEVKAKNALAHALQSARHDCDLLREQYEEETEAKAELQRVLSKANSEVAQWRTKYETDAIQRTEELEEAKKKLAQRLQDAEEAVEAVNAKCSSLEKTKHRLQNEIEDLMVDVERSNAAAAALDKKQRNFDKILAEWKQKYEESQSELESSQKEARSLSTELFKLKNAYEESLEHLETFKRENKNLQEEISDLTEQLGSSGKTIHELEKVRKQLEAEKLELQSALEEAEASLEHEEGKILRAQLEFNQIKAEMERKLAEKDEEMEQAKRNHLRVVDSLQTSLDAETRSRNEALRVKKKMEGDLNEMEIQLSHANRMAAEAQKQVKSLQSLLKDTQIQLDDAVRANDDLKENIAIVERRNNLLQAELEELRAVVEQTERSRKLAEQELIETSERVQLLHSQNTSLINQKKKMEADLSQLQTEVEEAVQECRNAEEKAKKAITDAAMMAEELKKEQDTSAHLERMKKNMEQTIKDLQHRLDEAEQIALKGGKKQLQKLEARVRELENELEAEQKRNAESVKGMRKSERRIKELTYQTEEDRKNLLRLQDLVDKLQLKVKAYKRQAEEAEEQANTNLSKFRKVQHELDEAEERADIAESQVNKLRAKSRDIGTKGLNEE

Row | SMILES | Ventricular EC25 ([1]; Y75 value) [µM] | Atrial EC25 [2, 4] [µM] | Skeletal EC25 ([3]; Y75 value) [µM] | Ventricular EC25 ([1]; Y75 value (no ‡ mark)) [µM] | Atrial EC25 ([2]; Y75 value (no ‡ mark)) [µM] | Skeletal EC25 ([3]; Y75 value (no ‡ mark)) [µM] | Ventricular EC25 [1, 5] | Skeletal EC25 [3, 5]
1 | Cc1cccc([C@@H](C)NC(=O)Cc2c(C)c3c(C)nccc3[nH]c2=O)c1 (single isomer, unassigned) [compound 339] | 100.00 | 100.00 | 100.00 |  |  |  |  | 
2 | Cc1cc([C@@H](C)NC(=O)Cc2cc3c(C#N)nccc3[nH]c2=O)ncc1F [compound 470] | 100.00 | 100.00 | 9.89 |  |  |  |  | 
3 | Cc1nc(C#N)ccc1[C@@H](C)NC(=O)Cc1c(C)c2cc(F)ccc2[nH]c1=O [compound 1050] |  |  |  | 2.36 | 0.22 | 3.4 |  | 
4 | Cc1c(CC(=O)N[C@H](C)c2ccc(C#N)cn2)c(=O)[nH]c2cccc(C#N)c12 [compound 1076] |  |  |  | 1.49 | 1.89 | 0.35 |  | 
5 | Cc1nccc2[nH]c(=O)c(CC(=O)N[C@@H](C)c3cccc(O)c3)c(C)c12 (single isomer, unassigned) [compound 331] | 100.00 | 100.00 | 100.00 |  |  |  |  | 
6 | Cc1cc2[nH]c(=O)c(CC(=O)N[C@@H](C)c3ccc(F)cc3F)c(C)c2cn1 [compound 446] | 100.00 | 100.00 | 4.59 |  |  |  |  | 
7 | Cc1cc(C#N)ncc1[C@H](C)NC(=O)Cc1c(C)c2c(C)c(F)ccc2[nH]c1=O [compound 1045] |  |  |  | 1.7 | 1.5 | 0.44 |  | 
8 | Cc1c(CC(=O)N[C@@H](C)c2ncc(C#N)cc2F)c(=O)[nH]c2ccc(OC(F)(F)F)nc12 [compound 456] | 3.69 | 0.66 | 0.53 |  |  |  |  | 
9 | Cc1cc([C@@H](C)NC(=O)Cc2c(C)c3c(C)c(F)ccc3[nH]c2=O)ncc1F (single isomer, unassigned) [compound 2076] |  |  |  | 46.49 | 100.00 | 2.56 |  | 
10 | Cc1c(C(F)(F)C(=O)N[C@@H](C)c2ncc(C#N)cn2)c(=O)[nH]c2ccc(F)c(C#N)c12 (single isomer, unassigned) [compound 2522] |  |  |  | 0.72 | 0.32 | 0.14 |  | 
11 | Cc1c(C(F)(F)C(=O)NC(C)c2cccc(C#N)n2)c(=O)[nH]c2ccc(F)c(F)c12 (single isomer, unassigned) [Compound 2588] |  |  |  |  | 100.00 |  | 67.27‡ μM | 19.03‡ μM
12 | Cc1c([C@@H](C)C(=O)N[C@@H](C)c2ccc(F)cc2F)c(=O)[nH]c2ccnc(F)c12 (single isomer, unassigned) [compound 376] | 1.33 | 0.16 | 0.03 |  |  |  |  | 
13 | C[C@@H](NC(=O)Cc1cc2c(C#N)cccc2[nH]c1=O)c1ncc(C#N)cn1 (single isomer, unassigned) [compound 2037] |  |  |  | 5.31 | 2.88 | 0.79 |  | 
14 | Cc1nccc2[nH]c(=O)c(CC(=O)N[C@H](C)c3ncc(F)cc3F)c(C)c12 (single isomer, unassigned) [compound 378] | 100.00 | 100.00 | 3.18 |  |  |  |  | 
15 | Cc1c(C2(C(=O)N[C@@H](C)c3ncc(C#N)cn3)CC2)c(=O)[nH]c2ccc(F)cc12 (single isomer, unassigned) [compound 2591] |  |  |  | 18.78 | 1.52 | 100.00 |  | 
16 | C[C@H](NC(=O)[C@H](C)c1cc2c(Cl)c(O)ccc2[nH]c1=O)c1ccc(F)cc1F (single isomer, unassigned) [compound 86] |  |  |  | 100.00 | 100.00 | 100.00 |  | 

Row | SMILES | Ventricular EC25 ([1]; Y75 value) [µM] | Atrial EC25 [2, 4] [µM] | Skeletal EC25 ([3]; Y75 value) [µM] | Ventricular EC25 ([1]; Y75 value (no ‡ mark)) [µM] | Atrial EC25 ([2]; Y75 value (no ‡ mark)) [µM] | Skeletal EC25 ([3]; Y75 value (no ‡ mark)) [µM] | Ventricular EC25 [1, 5] | Skeletal EC25 [3, 5]
17 | COc1ccc([C@@H](C)NC(=O)Cc2c(C)c3c(C)nccc3[nH]c2=O)cn1 (single isomer, unassigned) [compound 290] | 100.00 | 100.00 | 100.00 |  |  |  |  | 
18 | Cc1c(CC(=O)N[C@@H](C)c2ncc(C#N)cc2F)c(=O)[nH]c2ccc(F)c(C3CC3)c12 [compound 28] |  |  |  | 0.06 | 0.04 | 0.02 |  | 
19 | Cc1c(CC(=O)N[C@@H](C)c2ccc(C#N)cn2)c(=O)[nH]c2ccc(F)cc12 [compound 1128] |  |  |  | 0.70 | 0.52 | 0.09 |  | 
20 | Cc1c(C2(C(=O)N[C@H](C)c3cc(C#N)ccn3)CC2)c(=O)[nH]c2ccc(F)cc12 (single isomer, unassigned) [compound 2577] |  |  |  | 100.00 | 19.55 | 100.00 |  | 
21 | Cc1c(CC(=O)N[C@H](C)c2ccc(C#N)cc2F)c(=O)[nH]c2ccc(C(F)(F)F)nc12 (single isomer, unassigned) [compound 208] | 9.68 | 2.16 | 0.15 |  |  |  |  | 
22 | C[C@H](NC(=O)Cc1cc2c(F)cccc2[nH]c1=O)c1ccc(F)cc1F [compound 131] |  |  |  | 0.81 | 0.07 | 0.02 |  | 
23 | Cc1c(CC(=O)N[C@@H](C)c2ccc(C#N)cn2)c(=O)[nH]c2ccc(OC(F)(F)F)nc12 [compound 450] | 100.00 | 100.00 | 100.00 |  |  |  |  | 
24 | Cc1nncc2[nH]c(=O)c(CC(=O)N[C@H](C)c3ncc(C#N)cc3F)cc12 [compound 451] | 100.00 | 100.00 | 100.00 |  |  |  |  | 
25 | Cc1cc(C#N)cnc1[C@@H](C)NC(=O)Cc1c(O)c2c(C)c(F)ccc2[nH]c1=O [compound 1122] |  |  |  | 38.45 | 9.16 | 6.95 |  | 
26 | C[C@H](NC(=O)[C@@H](C)c1cc2c(C#N)nccc2[nH]c1=O)c1ccc(F)cc1F (single isomer, unassigned) [compound 361] | 3.68 | 1.29 | 0.03 |  |  |  |  | 
27 | Cc1c(CC(=O)N[C@H](C)c2ncc(C#N)cc2F)c(=O)[nH]c2ccc(O)nc12 [compound 165] | 100.00 | 2.77 | 47.80 |  |  |  |  | 
28 | Cc1c(C(F)(F)C(=O)N[C@@H](C)c2cnc(C#N)cn2)c(=O)[nH]c2ccc(F)cc12 (single isomer, unassigned) [compound 2564] |  |  |  | 0.89 | 0.51 | 0.49 |  | 
29 | Cc1c(CC(=O)N[C@@H](C)c2ccc(C#N)cc2F)c(=O)[nH]c2ccnc(C(F)(F)F)c12 [compound 162] | 0.11 | 0.13 | 0.02 |  |  |  |  | 
30 | Cc1c(CC(=O)N[C@H](C)c2ncc(C#N)cn2)c(=O)[nH]c2cc(F)ccc12 [compound 1040] |  |  |  | 12 | 6.01 | 52 |  | 
31 | Cc1nccc2[nH]c(=O)c(CC(=O)N[C@@H](C)c3ccc(S(C)(=O)=O)cc3F)c(C)c12 (single isomer, unassigned) [compound 207] | 100.00 | 100.00 | 1.32 |  |  |  |  | 
